Experimental data as given in patent US20050014765A1, “Aryl-heteroaromatic products, compositions comprising them and use” (Aventis Pharma S.A., priority 2003, published 2005).
Structures can show the parent of a compound that is named as a salt.

Biological target: T1, Tubulin purified from pig brains (Sus scrofa, UniProt P02550+P02554)
T1 construct: Tubulin is purified from pig brains according to published methods; from tissue; host or cells: pig brain
Assay: Assessment of the inhibition of tubulin polymerization (turbidimetry at 350 nm)
Format: biochemical
Conditions: concentration which inhibits the rate of polymerization by 50%; tubulin 1 mg/ml, 37° C.; read-out: Inhibition of tubulin polymerization IC 50
Description: Assessment of the Inhibition of Tubulin Polymerization
Tubulin is purified from pig brains according to published methods (Shelanski et al., 1973, Proc. Natl. Acad. Sci. USA, 70, 765-768. Weingarten et al., 1975, Proc. Natl. Acad. Sci. USA, 72, 1858-1862). Briefly, the brains are ground and centrifuged in an extraction buffer. The tubulin, present in the extract supernatant is subjected to two successive cycles of polymerization at 37° C. and depolymerization at 4° C., before being separated from the MAPs (Microtubule Associated Proteins) by chromatography on a phosphocellulose P11 column (Whatman). The tubulin thus isolated is more than 95% pure. It is stored in a buffer known as RB/2 30% glycerol, the composition of which is 50 mM MES-NaOH [2-(N-morpholino)ethanesulfonic acid], pH 6.8; 0.25 mM MgCl2; 0.5 mM EGTA; 30% (v/v) glycerol, 0.2 mM GTP (guanosine 5′-triphosphate).
The polymerization of the tubulin into microtubules is monitored by turbidimetry as follows: the tubulin is adjusted to a concentration of 10 μm (1 mg/ml) in the RB/2 30% glycerol buffer, to which are added 1 mM GTP and 6 mM MgCl2. The polymerization is initiated by increasing the temperature from 6° C. to 37° C. in a cuvette with a 1 cm optical pathlength, placed in a UVIKON 931 spectrophotometer (Kontron) equipped with a thermostatically-regulated cuvette holder. The increase in turbidity of the solution is monitored at 350 nm.
The products are dissolved at 10 mM in DMSO and added at variable concentrations (0.5 to 10 μm) to the tubulin solution before polymerization. The IC50 is defined as the concentration of the product which inhibits the rate of polymerization by 50%.

T1 sequence (P02550 whole entry): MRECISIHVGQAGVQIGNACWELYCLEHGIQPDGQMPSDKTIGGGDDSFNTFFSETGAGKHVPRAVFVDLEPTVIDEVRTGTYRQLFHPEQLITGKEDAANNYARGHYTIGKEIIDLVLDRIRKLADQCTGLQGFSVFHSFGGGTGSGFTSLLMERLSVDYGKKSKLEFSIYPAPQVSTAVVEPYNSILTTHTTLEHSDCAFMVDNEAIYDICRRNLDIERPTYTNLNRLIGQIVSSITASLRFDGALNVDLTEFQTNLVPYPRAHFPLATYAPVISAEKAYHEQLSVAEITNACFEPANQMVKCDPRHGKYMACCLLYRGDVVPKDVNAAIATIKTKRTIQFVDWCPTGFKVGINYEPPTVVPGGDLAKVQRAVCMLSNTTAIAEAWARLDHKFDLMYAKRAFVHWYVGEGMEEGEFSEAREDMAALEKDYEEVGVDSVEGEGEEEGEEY
T1 sequence (P02554 whole entry): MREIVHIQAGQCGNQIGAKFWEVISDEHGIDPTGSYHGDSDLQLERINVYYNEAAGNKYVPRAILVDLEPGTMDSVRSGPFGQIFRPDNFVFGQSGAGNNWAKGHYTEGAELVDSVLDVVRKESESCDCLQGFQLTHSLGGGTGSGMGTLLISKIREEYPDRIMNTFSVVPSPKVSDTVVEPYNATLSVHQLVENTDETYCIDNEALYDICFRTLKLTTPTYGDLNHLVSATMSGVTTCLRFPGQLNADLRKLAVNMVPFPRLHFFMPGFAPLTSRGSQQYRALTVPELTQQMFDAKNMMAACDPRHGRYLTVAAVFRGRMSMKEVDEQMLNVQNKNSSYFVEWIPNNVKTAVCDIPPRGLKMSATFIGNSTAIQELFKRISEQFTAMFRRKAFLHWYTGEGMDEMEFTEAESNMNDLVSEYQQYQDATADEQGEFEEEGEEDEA

Question: With `N#Cc1cccc(N2CCN(C(=O)c3cn(Cc4cccnc4)cc3-c3ccccc3)CC2)c1` [Example 92, 3-{4-[1-(Pyridin-3-yl)methyl-4-phenyl-1H-pyrrol-3-ylcarbonyl]piperazin-1-yl}-benzonitrile] as the compound, how does the IC50 read?
Answer: The IC50 was 0.167 µM.

Question: With `COC(=O)Cn1cc(C(=O)N2CCN(c3cccc(C(N)=O)c3)CC2)c(-c2ccccc2)c1` [Example 65] as the compound, how does the IC50 read?
Answer: The IC50 was 13.5 µM.

Question: How did the IC50 turn out when `CN(C)CCn1cc(C(=O)N2CCN(c3cccc(Cl)c3)CC2)c(-c2ccccc2)c1` [Example 31, [4-(3-Chlorophenyl)piperazin-1-yl][1-(2-dimethylaminoethyl)-4-phenyl-1H-pyrrol-3-yl]methanone hydrochloride] was run?
Answer: Its IC50 is 25 µM.

Question: How did the IC50 turn out when `Cn1ccc(C(=O)N2CCN(c3cccc(CO)c3)CC2)c1-c1ccccc1` [Example 80, [4-(3-Hydroxymethylphenyl)piperazin-1-yl](1-methyl-2-phenyl-1H-pyrrol-3-yl)-methanone] was run?
Answer: Its IC50 is 7.76 µM.

Question: How did the IC50 turn out when `NC(=O)c1cccc(N2CCN(C(=O)c3ccn(CCO)c3-c3ccccc3)CC2)c1` [Example 77, 3-[4-(1-Hydroxyethyl-2-phenyl-1H-pyrrol-3-ylcarbonyl)piperazin-1-yl]-benzamide] was run?
Answer: The IC50 was 3.61 µM.

Question: `COc1cc(OC)cc(N2CCN(C(=O)c3cn(Cc4cscn4)cc3-c3ccccc3)CC2)c1` [Example 45, [4-(3,5-Dimethoxyphenyl)piperazin-1-yl][1-(thiazol-4-yl)methyl-4-phenyl-1H-pyrrol-3-yl]methanone] was tested. Which IC50 did it give?
Answer: Its IC50 is 4.85 µM.

Question: `COc1cc(OC)cc(N2CCN(C(=O)c3cc[nH]c3-c3ccccc3)CC2)c1` [Example 21, [4-(3,5-Dimethoxyphenyl)piperazin-1-yl](2-phenyl-1H-pyrrol-3-yl)methanone] was tested. Which IC50 did it give?
Answer: The IC50 was 9.7 µM.

Question: `O=C(c1cc[nH]c1-c1ccccc1)N1CCN(c2cccc(CO)c2)CC1` [Example 86, [4-(3-Hydroxymethylphenyl)piperazin-1-yl](2-phenyl-1H-pyrrol-3-yl)methanone] was tested. Which IC50 did it give?
Answer: The IC50 was 6.41 µM.

Question: `O=C(c1ccn(CCO)c1-c1ccccc1)N1CCN(c2cccc(CO)c2)CC1` [Example 89] was tested. Which IC50 did it give?
Answer: The IC50 was 2.99 µM.

Question: `COCCNc1nc(-c2ccccc2)c(C(=O)N2CCN(c3cc(OC)cc(OC)c3)CC2)s1` [Example 91, [4-(3,5-Dimethoxyphenyl)piperazin-1-yl][2-(2-methoxyethyl)amino-4-phenylthiazol-5-yl]methanone] was tested. Which IC50 did it give?
Answer: The IC50 was 0.089 µM.

Question: How did the IC50 turn out when `COc1cccc(N2CCN(C(=O)c3ccoc3-c3ccc(Cl)cc3)CC2)c1` [Example 5, [4-(3-Methoxyphenyl)piperazin-1-yl][2-(4-chlorophenyl)furan-3-yl]methanone] was run?
Answer: The IC50 was 11.5 µM.

Question: For `COCCNc1nc(-c2ccccc2)c(C(=O)N2CCN(c3cc(C)cc(C)c3)CC2)s1` [Example 90, [4-(3,5-Dimethylphenyl)piperazin-1-yl][2-(2-methoxyethyl)amino-4-phenylthiazol-5-yl]methanone], which IC50 is on record?
Answer: Its IC50 is 0.095 µM.

Question: With `Cn1ccc(-c2ccccc2)c1C(=O)N1CCN(c2cccc(Cl)c2)CC1` [Example 7, [4-(3-Chlorophenyl)piperazin-1-yl](1-methyl-3-phenyl-1H-pyrrol-2-yl)-methanone] as the compound, how does the IC50 read?
Answer: Its IC50 is 12.8 µM.

Question: How did the IC50 turn out when `NC(=O)c1cccc(N2CCN(C(=O)c3[nH]c(S)nc3-c3ccccc3)CC2)c1` [Example 44, 3-[4-(2-Mercapto-4-phenyl-1H-imidazol-5-ylcarbonyl)piperazin-1-yl]benzamide] was run?
Answer: The IC50 was 1.06 µM.

Question: For `CS(=O)(=O)c1nc(-c2ccccc2)c(C(=O)N2CCN(c3cccc(C(N)=O)c3)CC2)[nH]1` [Example 71, 3-[4-(2-Methylsulfonyl-4-phenyl-1H-imidazol-4-ylcarbonyl)piperazin-1-yl]benzamide], which IC50 is on record?
Answer: Its IC50 is 13.9 µM.

Question: How did the IC50 turn out when `N#Cc1cccc(N2CCN(C(=O)c3[nH]c(C(F)(F)F)nc3-c3ccccc3)CC2)c1` [Example 84, 3-[4-(2-Trifluoromethyl-4-phenyl-1H-imidazol-5-ylcarbonyl)piperazin-1-yl]-benzonitrile] was run?
Answer: The IC50 was 0.574 µM.

Question: `O=C(c1[nH]c(C(F)(F)F)nc1-c1ccccc1)N1CCN(c2cccc(CO)c2)CC1` [Example 83, [4-(3-Hydroxymethylphenyl)piperazin-1-yl](2-trifluoromethyl-4-phenyl-1H-imidazol-5-yl)methanone] was tested. Which IC50 did it give?
Answer: Its IC50 is 1.41 µM.
